ChEMBL document CHEMBL1127453, “Benzimidazole ribonucleosides: design, synthesis, and antiviral activity of certain 2-(alkylthio)- and 2-(benzylthio)-5,6-dichloro-1-(beta-D-ribofuranosyl)benzimidazoles” (J Med Chem, 1994)

Columns and labels:
HFF cells (Homo sapiens) = assay: Tested for the visual cytotoxicity on HFF cells at the time of human cytomegalovirus (HCMV) plaque enumeration
Human betaherpesvirus 5 [1] = assay: Activity against human cytomegalovirus (HCMV) using plaque reduction assay; assay type: functional, organism-based
Human alphaherpesvirus 1 = assay: Tested for anti-viral activity against Herpes simplex virus type-1 using ELISA.; assay type: functional, organism-based
KB = assay: The inhibition of KB cell growth was determined; assay type: functional, cell-based; settings: Homo sapiens
Human betaherpesvirus 5 [2] = assay: Tested for the activity against human cytomegalovirus (HCMV) using yield reduction assay; assay type: functional

SMILES	IC50 (HFF cells (Homo sapiens))	IC50 (Human betaherpesvirus 5 [1])	IC50 (Human alphaherpesvirus 1)	IC50 (KB)	IC90 (Human betaherpesvirus 5 [2])
OC[C@@H]1O[C@@H](n2c(S)nc3cc(Cl)c(Cl)cc32)[C@H](O)[C@@H]1O	100 µM	> 100 µM	–	–	–
CSc1nc2cc(Cl)c(Cl)cc2n1[C@@H]1O[C@@H](CO)[C@@H](O)[C@H]1O	> 100 µM	> 100 µM	–	–	–
OC[C@H]1OC(n2c(SCc3ccc(Cl)c(Cl)c3)nc3cc(Cl)c(Cl)cc32)[C@H](O)[C@@H]1O (some centres not stated)	32 µM	28 µM	> 30 µM	–	–
OC[C@H]1OC(n2c(SCc3ccc(Br)cc3)nc3cc(Cl)c(Cl)cc32)[C@H](O)[C@@H]1O (some centres not stated)	32 µM	30 µM	30 µM	20 µM	–
C#CCSc1nc2cc(Cl)c(Cl)cc2n1C1O[C@H](CO)[C@@H](O)[C@H]1O (some centres not stated)	100 µM	25 µM	100 µM	60 µM	–
O=[N+]([O-])c1cccc(CSc2nc3cc(Cl)c(Cl)cc3n2C2O[C@H](CO)[C@@H](O)[C@H]2O)c1 (some centres not stated)	32 µM	40 µM	50 µM	25 µM	–
COc1ccc(CSc2nc3cc(Cl)c(Cl)cc3n2C2O[C@H](CO)[C@@H](O)[C@H]2O)cc1 (some centres not stated)	66 µM	40 µM	> 100 µM	41 µM	–
OC[C@H]1OC(n2c(SCc3cccc(C(F)(F)F)c3)nc3cc(Cl)c(Cl)cc32)[C@H](O)[C@@H]1O (some centres not stated)	32 µM	40 µM	40 µM	15 µM	–
OC[C@H]1OC(n2c(SCc3ccccc3Cl)nc3cc(Cl)c(Cl)cc32)[C@H](O)[C@@H]1O (some centres not stated)	32 µM	40 µM	60 µM	30 µM	–
CC(C)(C)c1ccc(CSc2nc3cc(Cl)c(Cl)cc3n2C2O[C@H](CO)[C@@H](O)[C@H]2O)cc1 (some centres not stated)	32 µM	20 µM	20 µM	50 µM	–
CS(=O)(=O)c1nc2cc(Cl)c(Cl)cc2n1C1O[C@H](CO)[C@@H](O)[C@H]1O (some centres not stated)	10 µM	10 µM	–	–	–
OC[C@H]1OC(n2c(SCc3ccc(F)cc3)nc3cc(Cl)c(Cl)cc32)[C@H](O)[C@@H]1O (some centres not stated)	21 µM	30 µM	> 30 µM	–	–
N#CCSc1nc2cc(Cl)c(Cl)cc2n1C1O[C@H](CO)[C@@H](O)[C@H]1O (some centres not stated)	100 µM	30 µM	> 100 µM	> 100 µM	10 µM
Cc1ccc(CSc2nc3cc(Cl)c(Cl)cc3n2C2O[C@H](CO)[C@@H](O)[C@H]2O)cc1 (some centres not stated)	32 µM	30 µM	> 30 µM	–	–
Cc1cccc(CSc2nc3cc(Cl)c(Cl)cc3n2C2O[C@H](CO)[C@@H](O)[C@H]2O)c1 (some centres not stated)	32 µM	40 µM	38 µM	30 µM	–
C=CCSc1nc2cc(Cl)c(Cl)cc2n1C1O[C@H](CO)[C@@H](O)[C@H]1O (some centres not stated)	24 µM	> 100 µM	> 100 µM	68 µM	–
O=[N+]([O-])c1ccc(CSc2nc3cc(Cl)c(Cl)cc3n2C2O[C@H](CO)[C@@H](O)[C@H]2O)cc1 (some centres not stated)	32 µM	40 µM	40 µM	30 µM	–
OC[C@H]1OC(n2c(SCc3ccc(Cl)cc3)nc3cc(Cl)c(Cl)cc32)[C@H](O)[C@@H]1O (some centres not stated)	100 µM	> 100 µM	> 30 µM	–	–
OC[C@H]1OC(n2c(SCc3cccc(Cl)c3)nc3cc(Cl)c(Cl)cc32)[C@H](O)[C@@H]1O (some centres not stated)	21 µM	25 µM	70 µM	19 µM	–
Nc1nc2c(ncn2COCCO)c(=O)[nH]1 [ACYCLOVIR]	> 100 µM	86 µM	1.7 µM	> 100 µM	85 µM
OC[C@H]1O[C@@H](n2cnc3cc(Cl)c(Cl)cc32)[C@H](O)[C@@H]1O [DICHLORORIBOBENZIMIDAZOLE]	24 µM	42 µM	30 µM	100 µM	19 µM
O=C(O)P(=O)(O)O [FOSCARNET]	> 100 µM	39 µM	–	–	–
Nc1nc2c(ncn2COC(CO)CO)c(=O)[nH]1 [GANCICLOVIR]	> 100 µM	7.4 µM	–	–	1.6 µM
